{"source": "paper PMC8800111", "about": "(The Journal of Biological Chemistry, 2021)", "type_in_all_cases": "cell-based", "key": {"[1]": {"molecular_target": "proteins of U3A human fibrosarcoma cells (4462 proteins detected) (Homo sapiens, UniProt Q9UIC8)", "settings": "protein LCMT1, U3A cells"}, "[2]": {"molecular_target": "proteins of U3A human fibrosarcoma cells (4462 proteins detected) (Homo sapiens, UniProt Q9GZT3)", "settings": "protein SLIRP, U3A cells"}, "[3]": {"molecular_target": "proteins of U3A human fibrosarcoma cells (4462 proteins detected) (Homo sapiens, UniProt O43683)", "settings": "protein BUB1; U3A cells"}, "[4]": {"molecular_target": "proteins of U3A human fibrosarcoma cells (4462 proteins detected) (Homo sapiens, UniProt P27824)", "settings": "protein CANX; soluble abundance after heat, U3A cells"}, "[5]": {"molecular_target": "proteins of U3A human fibrosarcoma cells (4462 proteins detected) (Homo sapiens, UniProt Q9NTX5)", "settings": "protein ECHDC1; U3A cells"}, "[6]": {"molecular_target": "proteins of U3A human fibrosarcoma cells (4462 proteins detected) (Homo sapiens, UniProt Q9UNN8)", "sequence (Q9UNN8 18-238)": "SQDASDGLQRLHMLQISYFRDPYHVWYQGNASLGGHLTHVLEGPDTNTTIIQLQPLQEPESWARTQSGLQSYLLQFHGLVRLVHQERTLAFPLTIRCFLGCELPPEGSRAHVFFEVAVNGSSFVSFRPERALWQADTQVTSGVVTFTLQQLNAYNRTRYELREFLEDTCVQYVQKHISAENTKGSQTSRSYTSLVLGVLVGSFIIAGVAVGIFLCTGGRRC", "settings": "protein PROCR; U3A cells"}, "[7]": {"molecular_target": "proteins of U3A human fibrosarcoma cells (4462 proteins detected) (Homo sapiens, UniProt P52943)", "sequence (P52943 whole entry)": "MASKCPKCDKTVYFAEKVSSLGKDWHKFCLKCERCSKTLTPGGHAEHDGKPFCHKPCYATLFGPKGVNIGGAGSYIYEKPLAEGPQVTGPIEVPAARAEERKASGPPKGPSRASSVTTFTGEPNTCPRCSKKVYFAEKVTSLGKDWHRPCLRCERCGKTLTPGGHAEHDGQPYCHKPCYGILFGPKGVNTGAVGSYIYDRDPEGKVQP", "settings": "protein CRIP2, U3A cells"}, "[8]": {"molecular_target": "proteins of U3A human fibrosarcoma cells (4462 proteins detected) (Homo sapiens, UniProt Q9UBV8)", "sequence (Q9UBV8 whole entry)": "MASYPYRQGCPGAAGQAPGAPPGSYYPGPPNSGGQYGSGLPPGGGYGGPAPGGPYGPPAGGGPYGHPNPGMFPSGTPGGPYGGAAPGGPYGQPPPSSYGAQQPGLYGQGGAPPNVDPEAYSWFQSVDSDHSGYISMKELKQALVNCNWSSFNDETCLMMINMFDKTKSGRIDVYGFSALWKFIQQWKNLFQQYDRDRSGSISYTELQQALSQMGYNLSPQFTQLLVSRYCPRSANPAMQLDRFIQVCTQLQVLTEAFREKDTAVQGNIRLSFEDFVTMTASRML", "settings": "protein PEF1; U3A, 10 μM, 2 h"}, "[9]": {"molecular_target": "proteins of U3A human fibrosarcoma cells (4462 proteins detected) (Homo sapiens, UniProt P56282)", "settings": "protein POLE2; U3A cells"}, "[10]": {"molecular_target": "proteins of U3A human fibrosarcoma cells (4462 proteins detected) (Homo sapiens, UniProt Q9BXY0)", "settings": "protein MAK16; soluble abundance after heat, U3A cells"}, "[11]": {"molecular_target": "proteins of U3A human fibrosarcoma cells (4462 proteins detected) (Homo sapiens, UniProt P35249)", "settings": "protein RFC4; U3A, 10 μM, 2 h"}, "[12]": {"molecular_target": "proteins of U3A human fibrosarcoma cells (4462 proteins detected) (Homo sapiens, UniProt Q8NFQ8)", "settings": "protein TOR1AIP2; U3A cells"}, "[13]": {"molecular_target": "proteins of U3A human fibrosarcoma cells (4462 proteins detected) (Homo sapiens, UniProt P22413)", "settings": "protein ENPP1; U3A cells"}, "[14]": {"molecular_target": "proteins of U3A human fibrosarcoma cells (4462 proteins detected) (Homo sapiens, UniProt P26038)", "sequence (P26038 whole entry)": "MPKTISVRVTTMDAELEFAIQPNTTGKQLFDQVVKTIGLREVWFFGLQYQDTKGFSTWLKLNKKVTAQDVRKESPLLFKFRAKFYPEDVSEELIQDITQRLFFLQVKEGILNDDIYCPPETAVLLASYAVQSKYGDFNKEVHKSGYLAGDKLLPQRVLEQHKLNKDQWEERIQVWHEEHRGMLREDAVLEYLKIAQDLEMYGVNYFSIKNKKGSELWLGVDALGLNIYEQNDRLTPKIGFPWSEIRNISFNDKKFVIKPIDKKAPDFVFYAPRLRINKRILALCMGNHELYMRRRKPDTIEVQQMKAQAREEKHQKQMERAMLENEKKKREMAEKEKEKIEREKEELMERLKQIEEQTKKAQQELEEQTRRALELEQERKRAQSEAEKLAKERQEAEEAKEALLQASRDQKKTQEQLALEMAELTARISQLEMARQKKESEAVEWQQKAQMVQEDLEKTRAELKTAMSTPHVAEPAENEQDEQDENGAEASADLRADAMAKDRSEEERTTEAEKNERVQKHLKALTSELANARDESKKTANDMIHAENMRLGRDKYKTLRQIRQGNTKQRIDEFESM", "settings": "protein MSN, U3A cells"}, "[15]": {"molecular_target": "proteins of U3A human fibrosarcoma cells (4462 proteins detected) (Homo sapiens, UniProt Q9H4A3)", "sequence (Q9H4A3 whole entry)": "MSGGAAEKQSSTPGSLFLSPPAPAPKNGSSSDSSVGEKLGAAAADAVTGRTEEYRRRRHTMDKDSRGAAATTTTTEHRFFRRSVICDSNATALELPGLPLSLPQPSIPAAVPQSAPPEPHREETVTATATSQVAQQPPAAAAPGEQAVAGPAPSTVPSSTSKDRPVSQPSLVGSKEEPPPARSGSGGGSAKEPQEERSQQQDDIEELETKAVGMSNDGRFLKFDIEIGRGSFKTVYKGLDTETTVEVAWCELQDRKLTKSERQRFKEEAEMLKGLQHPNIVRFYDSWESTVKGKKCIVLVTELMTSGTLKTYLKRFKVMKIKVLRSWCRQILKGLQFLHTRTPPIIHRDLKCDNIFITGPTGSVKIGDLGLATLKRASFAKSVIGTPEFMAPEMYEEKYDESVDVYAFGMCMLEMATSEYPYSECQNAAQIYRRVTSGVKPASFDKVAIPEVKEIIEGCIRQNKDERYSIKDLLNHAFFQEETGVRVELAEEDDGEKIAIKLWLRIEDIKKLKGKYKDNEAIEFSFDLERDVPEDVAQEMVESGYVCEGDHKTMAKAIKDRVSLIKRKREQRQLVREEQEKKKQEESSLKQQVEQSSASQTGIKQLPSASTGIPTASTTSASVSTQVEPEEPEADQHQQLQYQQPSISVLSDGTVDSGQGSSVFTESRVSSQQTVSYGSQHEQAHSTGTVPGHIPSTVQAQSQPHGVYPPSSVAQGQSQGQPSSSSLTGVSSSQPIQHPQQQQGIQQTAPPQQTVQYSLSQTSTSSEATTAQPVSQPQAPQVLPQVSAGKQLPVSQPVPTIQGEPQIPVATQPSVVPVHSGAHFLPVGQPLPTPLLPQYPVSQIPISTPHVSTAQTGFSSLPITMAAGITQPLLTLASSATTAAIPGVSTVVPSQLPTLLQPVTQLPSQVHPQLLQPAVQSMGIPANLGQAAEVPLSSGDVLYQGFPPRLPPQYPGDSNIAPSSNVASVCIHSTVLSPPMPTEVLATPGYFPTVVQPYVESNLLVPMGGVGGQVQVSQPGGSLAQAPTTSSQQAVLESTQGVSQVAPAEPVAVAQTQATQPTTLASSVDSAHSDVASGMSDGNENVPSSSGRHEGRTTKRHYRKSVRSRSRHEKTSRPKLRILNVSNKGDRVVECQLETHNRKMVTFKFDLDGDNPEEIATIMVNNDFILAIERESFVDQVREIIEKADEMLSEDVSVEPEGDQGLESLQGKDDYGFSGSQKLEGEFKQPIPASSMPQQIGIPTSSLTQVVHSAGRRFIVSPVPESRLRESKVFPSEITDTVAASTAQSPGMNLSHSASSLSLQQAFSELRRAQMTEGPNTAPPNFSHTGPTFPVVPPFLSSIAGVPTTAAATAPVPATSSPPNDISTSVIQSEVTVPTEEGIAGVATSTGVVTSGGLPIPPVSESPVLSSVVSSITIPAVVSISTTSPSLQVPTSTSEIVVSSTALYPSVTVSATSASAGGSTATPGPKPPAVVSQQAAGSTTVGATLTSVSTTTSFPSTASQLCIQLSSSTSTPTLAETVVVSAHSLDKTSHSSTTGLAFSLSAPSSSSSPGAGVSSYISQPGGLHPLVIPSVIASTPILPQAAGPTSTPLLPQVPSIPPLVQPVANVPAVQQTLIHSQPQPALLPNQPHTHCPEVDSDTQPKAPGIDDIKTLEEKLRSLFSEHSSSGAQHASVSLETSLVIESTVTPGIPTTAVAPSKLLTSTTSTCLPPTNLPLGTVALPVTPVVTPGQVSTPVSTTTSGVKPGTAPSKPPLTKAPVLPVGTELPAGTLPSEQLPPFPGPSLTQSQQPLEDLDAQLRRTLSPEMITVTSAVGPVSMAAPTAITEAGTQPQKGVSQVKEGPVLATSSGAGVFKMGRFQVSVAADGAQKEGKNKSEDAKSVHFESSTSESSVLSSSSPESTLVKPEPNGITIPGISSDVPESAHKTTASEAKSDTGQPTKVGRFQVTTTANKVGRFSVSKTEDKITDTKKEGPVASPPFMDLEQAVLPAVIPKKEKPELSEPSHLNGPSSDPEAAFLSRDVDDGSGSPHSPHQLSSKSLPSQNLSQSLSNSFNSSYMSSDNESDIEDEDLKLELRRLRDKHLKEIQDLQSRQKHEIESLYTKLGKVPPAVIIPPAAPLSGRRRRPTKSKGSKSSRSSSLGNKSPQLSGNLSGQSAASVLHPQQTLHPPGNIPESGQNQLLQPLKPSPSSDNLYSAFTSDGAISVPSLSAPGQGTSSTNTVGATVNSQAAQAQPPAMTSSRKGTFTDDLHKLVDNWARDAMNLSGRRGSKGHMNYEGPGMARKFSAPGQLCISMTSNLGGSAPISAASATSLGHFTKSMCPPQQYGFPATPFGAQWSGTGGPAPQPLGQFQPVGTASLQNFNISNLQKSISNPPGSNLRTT", "settings": "protein WNK1, U3A cells"}, "[16]": {"molecular_target": "proteins of U3A human fibrosarcoma cells (4462 proteins detected) (Homo sapiens, UniProt Q8TED0)", "settings": "protein UTP15; U3A cells"}, "[17]": {"molecular_target": "proteins of U3A human fibrosarcoma cells (4462 proteins detected) (Homo sapiens, UniProt P09972)", "settings": "protein ALDOC, U3A cells"}, "[18]": {"molecular_target": "proteins of U3A human fibrosarcoma cells (4462 proteins detected) (Homo sapiens, UniProt P61201)", "settings": "protein COPS2; U3A cells"}, "[19]": {"molecular_target": "proteins of U3A human fibrosarcoma cells (4462 proteins detected) (Homo sapiens, UniProt P50995)", "settings": "protein ANXA11; U3A cells"}, "[20]": {"molecular_target": "proteins of U3A human fibrosarcoma cells (4462 proteins detected) (Homo sapiens, UniProt Q9HAN9)", "settings": "protein NMNAT1, U3A cells"}, "[21]": {"molecular_target": "proteins of U3A human fibrosarcoma cells (4462 proteins detected) (Homo sapiens, UniProt P22059)", "settings": "protein OSBP; soluble abundance after heat, U3A cells"}, "[22]": {"molecular_target": "proteins of U3A human fibrosarcoma cells (4462 proteins detected) (Homo sapiens, UniProt O43427)", "sequence (O43427 whole entry)": "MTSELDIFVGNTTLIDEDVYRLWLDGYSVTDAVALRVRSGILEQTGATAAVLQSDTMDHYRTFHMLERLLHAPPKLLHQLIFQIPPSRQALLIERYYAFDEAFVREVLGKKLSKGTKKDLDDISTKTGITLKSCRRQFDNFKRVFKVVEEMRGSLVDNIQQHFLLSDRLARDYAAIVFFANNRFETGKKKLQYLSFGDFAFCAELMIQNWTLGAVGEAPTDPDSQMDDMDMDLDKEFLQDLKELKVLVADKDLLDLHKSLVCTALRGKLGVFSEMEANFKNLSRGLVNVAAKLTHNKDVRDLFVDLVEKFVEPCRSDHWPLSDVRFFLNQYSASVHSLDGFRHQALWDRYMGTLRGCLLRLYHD", "settings": "protein FIBP; soluble abundance after heat, U3A cells"}, "[23]": {"molecular_target": "proteins of U3A human fibrosarcoma cells (4462 proteins detected) (Homo sapiens, UniProt Q8TDN6)", "settings": "protein BRIX1; U3A cells"}, "[24]": {"molecular_target": "proteins of U3A human fibrosarcoma cells (4462 proteins detected) (Homo sapiens, UniProt Q5SZL2)", "settings": "protein CEP85L; U3A, 10 μM, 2 h"}, "[25]": {"molecular_target": "proteins of U3A human fibrosarcoma cells (4462 proteins detected) (Homo sapiens, UniProt P52747)", "sequence (P52747 whole entry)": "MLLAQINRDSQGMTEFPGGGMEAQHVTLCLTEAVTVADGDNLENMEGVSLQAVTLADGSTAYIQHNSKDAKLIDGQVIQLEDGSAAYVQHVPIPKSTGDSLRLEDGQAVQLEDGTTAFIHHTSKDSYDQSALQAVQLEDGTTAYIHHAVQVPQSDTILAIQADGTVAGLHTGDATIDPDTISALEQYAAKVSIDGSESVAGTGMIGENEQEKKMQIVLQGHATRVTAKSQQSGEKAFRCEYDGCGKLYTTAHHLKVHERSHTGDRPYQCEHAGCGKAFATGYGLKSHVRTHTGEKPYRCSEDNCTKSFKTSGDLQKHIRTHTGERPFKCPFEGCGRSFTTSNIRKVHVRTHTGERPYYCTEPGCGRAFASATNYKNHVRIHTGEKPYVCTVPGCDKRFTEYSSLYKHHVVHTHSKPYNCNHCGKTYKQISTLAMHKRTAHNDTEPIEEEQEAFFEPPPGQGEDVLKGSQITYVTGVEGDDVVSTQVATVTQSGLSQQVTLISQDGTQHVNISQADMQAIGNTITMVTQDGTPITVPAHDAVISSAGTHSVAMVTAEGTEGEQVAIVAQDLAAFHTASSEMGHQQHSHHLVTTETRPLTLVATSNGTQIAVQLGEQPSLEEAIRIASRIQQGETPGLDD", "settings": "protein ZNF143; U3A, 10 μM, 2 h"}, "[26]": {"molecular_target": "proteins of U3A human fibrosarcoma cells (4462 proteins detected) (Homo sapiens, UniProt Q9Y6M5)", "settings": "protein SLC30A1; U3A cells"}, "[27]": {"molecular_target": "proteins of U3A human fibrosarcoma cells (4462 proteins detected) (Homo sapiens, UniProt P36543)", "sequence (P36543 whole entry)": "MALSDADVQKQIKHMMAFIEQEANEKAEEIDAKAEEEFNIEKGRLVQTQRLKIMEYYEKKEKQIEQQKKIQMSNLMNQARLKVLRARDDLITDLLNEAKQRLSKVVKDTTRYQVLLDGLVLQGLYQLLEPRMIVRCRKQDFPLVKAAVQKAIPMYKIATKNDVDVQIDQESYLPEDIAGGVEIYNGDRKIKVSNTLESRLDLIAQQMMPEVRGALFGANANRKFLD", "settings": "protein ATP6V1E1; soluble abundance after heat, U3A cells"}, "[28]": {"molecular_target": "proteins of U3A human fibrosarcoma cells (4462 proteins detected) (Homo sapiens, UniProt Q16576)", "settings": "protein RBBP7; soluble abundance after heat, U3A cells"}, "[29]": {"molecular_target": "proteins of U3A human fibrosarcoma cells (4462 proteins detected) (Homo sapiens, UniProt O14976)", "settings": "protein GAK; U3A, 10 μM, 2 h"}, "[30]": {"molecular_target": "proteins of U3A human fibrosarcoma cells (4462 proteins detected) (Homo sapiens, UniProt P25325)", "settings": "protein MPST, U3A cells"}}, "data": [{"smiles": "CCc1nc(N)nc(N)c1-c1ccc(Cl)cc1", "note": "[pyrimethamine]", "values": [{"measurement": "Log2 (PYR/DMSO)", "setting": "[1]", "result": -0.04}, {"measurement": "Log2 (PYR/DMSO)", "setting": "[2]", "result": -0.04}, {"measurement": "Log2 (PYR/DMSO)", "setting": "[3]", "result": 0.16}, {"measurement": "Log2 (PYR/DMSO)", "setting": "[4]", "result": 0.14}, {"measurement": "Log2 (PYR/DMSO)", "setting": "[5]", "result": 0.18}, {"measurement": "Log2 (PYR/DMSO)", "setting": "[6]", "result": 0.18}, {"measurement": "Log2 (PYR/DMSO)", "setting": "[7]", "result": -0.04}, {"measurement": "Log2 (PYR/DMSO), PEF1", "setting": "[8]", "result": 0.24}, {"measurement": "Log2 (PYR/DMSO)", "setting": "[9]", "result": 0.19}, {"measurement": "Log2 (PYR/DMSO)", "setting": "[10]", "result": 0.14}, {"measurement": "Log2 (PYR/DMSO), RFC4", "setting": "[11]", "result": 0.27}, {"measurement": "Log2 (PYR/DMSO)", "setting": "[12]", "result": 0.17}, {"measurement": "Log2 (PYR/DMSO)", "setting": "[13]", "result": 0.22}, {"measurement": "Log2 (PYR/DMSO)", "setting": "[14]", "result": -0.04}, {"measurement": "Log2 (PYR/DMSO)", "setting": "[15]", "result": -0.04}, {"measurement": "Log2 (PYR/DMSO)", "setting": "[16]", "result": 0.16}, {"measurement": "Log2 (PYR/DMSO)", "setting": "[17]", "result": -0.04}, {"measurement": "Log2 (PYR/DMSO)", "setting": "[18]", "result": 0.21}, {"measurement": "Log2 (PYR/DMSO)", "setting": "[19]", "result": 0.19}, {"measurement": "Log2 (PYR/DMSO)", "setting": "[20]", "result": -0.04}, {"measurement": "Log2 (PYR/DMSO)", "setting": "[21]", "result": 0.14}, {"measurement": "Log2 (PYR/DMSO)", "setting": "[22]", "result": 0.14}, {"measurement": "Log2 (PYR/DMSO)", "setting": "[23]", "result": 0.20}, {"measurement": "Log2 (PYR/DMSO), CEP85L", "setting": "[24]", "result": -0.24}, {"measurement": "Log2 (PYR/DMSO), ZNF143", "setting": "[25]", "result": -0.16}, {"measurement": "Log2 (PYR/DMSO)", "setting": "[26]", "result": 0.16}, {"measurement": "Log2 (PYR/DMSO)", "setting": "[27]", "result": 0.14}, {"measurement": "Log2 (PYR/DMSO)", "setting": "[28]", "result": 0.15}, {"measurement": "Log2 (PYR/DMSO), GAK", "setting": "[29]", "result": -0.20}, {"measurement": "Log2 (PYR/DMSO)", "setting": "[30]", "result": -0.05}]}]}
